Measured values: US7452870B2, “Drug-eluting stents coated with P2Y12 receptor antagonist compound” (Inspire Pharmaceuticals, Inc., priority 2000, dated 2008)

Tests used:
Assay type in all cases: cell-based
P2Y4 = P2Y4 (Homo sapiens, UniProt P51582); assay: Calcium mobilization assay, P2Y4; set-up: key: no response (NR); details: activation of P2Y4 receptor;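 also: test compound added first then a maximal dose of the cognate agonist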
P2Y2 = P2Y2 (Homo sapiens, UniProt P41231); assay: Calcium mobilization assay, P2Y2; set-up: key: no response (NR); details: activation of P2Y2 receptor;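 also: test compound added first then a maximal dose of the cognate agonist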
Sequence of P2Y2 (P41231 whole entry, species assumed): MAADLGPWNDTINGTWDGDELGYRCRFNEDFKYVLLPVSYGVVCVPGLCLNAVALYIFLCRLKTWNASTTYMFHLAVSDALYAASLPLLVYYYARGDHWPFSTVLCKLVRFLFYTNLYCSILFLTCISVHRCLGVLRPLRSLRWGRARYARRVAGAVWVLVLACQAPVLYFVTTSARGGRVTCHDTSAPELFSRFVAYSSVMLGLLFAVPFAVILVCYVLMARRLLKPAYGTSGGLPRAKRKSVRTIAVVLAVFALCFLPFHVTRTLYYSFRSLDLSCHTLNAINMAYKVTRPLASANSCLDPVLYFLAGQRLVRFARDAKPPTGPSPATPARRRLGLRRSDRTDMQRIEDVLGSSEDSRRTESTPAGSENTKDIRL

[1] = test system: washed platelet (ADP-induced aggregation; P2Y12 receptor); assay: ADP-induced platelet aggregation, washed platelet preparation; details: Homo sapiens, inhibition of ADP-induced aggregation, washed platelets, average of at least two separate experiments
Protocol: Blood was collected from healthy volunteers into syringes containing ⅙ final blood volume of anti-coagulant ACD (65 mM citric acid, 85 mM sodium citrate, 110 mM dextrose) for washed platelet (WP) preparation or into a syringe containing a final concentration of 10 units/mL heparin or 300 μM PPACK for whole blood (WB) assays. The blood collected for whole blood assays was maintained at room temperature and immediately tested as described below. […] These centrifugations and washes were repeated twice following by resuspension in the media described above containing 0.25 U apyrase/mL. Platelet aggregation was measured using the optical mode of a CHRONOLOG® aggregometer (Havertown, Pa.). Five hundred μl of platelet suspension containing 1 mg/mL Fibrinogen were warmed to 37° C. and stirred at 1000 rpm. Indicated concentrations of ADP were added to the sample and aggregation was monitored for 8 minutes. […] For whole blood aggregation, blood was diluted 1:1 with saline and then aggregation was performed in the same manner as described above using the impedance mode of the aggregometer. The potency of agonists and inhibitors of platelet aggregation was calculated from both, the rate of aggregation and the maximal extent of aggregation obtained for each determination by fitting the data to a four-parameter logistic equation using the […]® software package (GraphPad Corp. San Diego, Calif.).
The ability of P2Y12 antagonists to inhibit platelet aggregation is presented in this application as the percent inhibition of the aggregation induced by a maximally effective concentration of ADP.
Data presented are from the average of at least two separate experiments.

P2Y1 = P2Y1 (Homo sapiens, UniProt P47900); assay: Calcium mobilization assay, P2Y1; set-up: key: no response (NR); details: activation of P2Y1 receptor;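 also: test compound added first then a maximal dose of the cognate agonist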
Sequence of P2Y1 (P47900 whole entry): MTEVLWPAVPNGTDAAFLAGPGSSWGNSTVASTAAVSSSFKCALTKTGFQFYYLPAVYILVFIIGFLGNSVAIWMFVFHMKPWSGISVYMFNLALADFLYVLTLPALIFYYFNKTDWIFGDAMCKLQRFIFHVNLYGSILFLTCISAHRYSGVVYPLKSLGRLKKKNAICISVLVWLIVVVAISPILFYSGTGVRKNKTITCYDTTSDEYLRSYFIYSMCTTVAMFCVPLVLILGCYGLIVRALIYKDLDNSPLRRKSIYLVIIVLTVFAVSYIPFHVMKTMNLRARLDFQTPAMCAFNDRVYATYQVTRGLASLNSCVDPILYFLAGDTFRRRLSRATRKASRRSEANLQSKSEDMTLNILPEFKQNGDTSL

P2Y6 = P2Y6 (Homo sapiens, UniProt Q15077); assay: Calcium mobilization assay, P2Y6; set-up: key: no response (NR); details: activation of P2Y6 receptor;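 also: test compound added first then a maximal dose of the cognate agonist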
Sequence of P2Y6 (Q15077 whole entry, species assumed): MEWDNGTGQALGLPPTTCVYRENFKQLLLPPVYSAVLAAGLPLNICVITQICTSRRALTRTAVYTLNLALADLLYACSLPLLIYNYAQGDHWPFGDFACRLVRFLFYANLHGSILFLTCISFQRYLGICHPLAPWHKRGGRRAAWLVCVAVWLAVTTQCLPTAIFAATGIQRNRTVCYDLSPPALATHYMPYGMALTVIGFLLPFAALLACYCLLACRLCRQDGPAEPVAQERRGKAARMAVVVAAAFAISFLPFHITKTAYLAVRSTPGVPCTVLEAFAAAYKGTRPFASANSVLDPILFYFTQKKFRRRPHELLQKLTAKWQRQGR

Sequence of P2Y4 (P51582 whole entry, species assumed): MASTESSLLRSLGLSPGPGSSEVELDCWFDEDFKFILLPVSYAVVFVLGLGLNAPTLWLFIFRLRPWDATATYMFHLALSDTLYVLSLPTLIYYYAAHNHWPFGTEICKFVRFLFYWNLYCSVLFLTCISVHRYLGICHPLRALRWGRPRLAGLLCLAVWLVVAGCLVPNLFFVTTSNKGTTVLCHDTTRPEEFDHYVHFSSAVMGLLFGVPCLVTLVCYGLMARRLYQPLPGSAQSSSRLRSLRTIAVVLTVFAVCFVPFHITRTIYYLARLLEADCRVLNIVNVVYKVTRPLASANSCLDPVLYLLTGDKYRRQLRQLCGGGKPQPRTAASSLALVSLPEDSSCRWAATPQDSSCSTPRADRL

SMILES | Calcium Mobilization P2Y4 (P2Y4) | Calcium Mobilization P2Y2 (P2Y2) | IC50 [1] [nM] | Calcium Mobilization P2Y1 (P2Y1) | Calcium Mobilization P2Y6 (P2Y6)
CCNC(=O)Nc1ncnc2c1ncn2[C@@H]1O[C@H](COP(=O)(O)OP(=O)(O)OC[C@H]2O[C@@H](n3cnc4c(NC(=O)NCC)ncnc43)[C@H]3OC(C#Cc4ccccc4)OC23)C2OC(C#Cc3ccccc3)OC21 (stereo partly shown) [Compound 45, P^1, p2′-di-(2′,3′-phenylpropargylacetal-6-N-ethylureaadenosine 5′-) diphosphate] | NR | NR | 10 | NR | NR
CCNC(=O)Nc1ncnc2c1ncn2[C@@H]1O[C@H](COP(=O)(O)O)C2OC(/C=C/c3ccccc3)O[C@@H]21 (stereo partly shown) [Compound 27, 2′,3′-cinnamyl acetal-6-N-ethylurea adenosine 5′-monophosphate] | NR | NR | 9 ± 3 | NR | NR
O=C(Nc1ccccc1)Nc1ncnc2c1ncn2[C@@H]1O[C@H](COP(=O)(O)O)C2OC(C#Cc3ccccc3)O[C@@H]21 (stereo partly shown) [Compound 31, 2′,3′-phenylpropargyl acetal-6-N-phenylurea AMP] | NR | NR | 230 | NR | NR
CCNC(=O)Nc1ncnc2c1ncn2[C@@H]1O[C@H](COP(=O)(O)O)C2OC(Cc3ccccc3)O[C@@H]21 (stereo partly shown) [Compound 24, 2′,3′-phenylacetaldehyde acetal-6-N-ethylurea AMP] | NR | NR | 41 ± 7 | NR | NR
CCNC(=O)Nc1ncnc2c1ncn2[C@@H]1O[C@H](COP(=O)(O)O)C2O[C@H](c3ccccc3)O[C@@H]21 (stereo partly drawn) [Compound 42, 2′3′-(trans)phenyl acetal-6-N-ethylurea AMP] | NR | NR | 12 | NR | NR
CCNC(=O)Nc1ncnc2c1ncn2[C@@H]1O[C@H](COP(=O)(O)O)C2OC(c3ccccc3)O[C@@H]21 (stereo partly shown) [Compound 36, 2′,3′-benzaldehyde acetal-6-N-ethylurea AMP] | NR | NR | 13 ± 3 | NR | NR
O=C(Nc1ccccc1)Nc1ncnc2c1ncn2[C@@H]1O[C@H](COP(=O)(O)O)C2OC(/C=C/c3ccccc3)O[C@@H]21 (stereo partly shown) [Compound 28, 2′,3′-cinnamyl acetal-6-N-phenylurea AMP] | NR | NR | 209 | NR | NR
CCNC(=O)Nc1ncnc2c1ncn2[C@@H]1O[C@H](COP(=O)(O)O)C2OC(C#Cc3ccccc3)O[C@@H]21 (stereo partly shown) [Compound 35, 2′,3′-phenylpropargyl acetal-6-N-ethylurea AMP] | NR | NR | 25 | NR | NR
CCNC(=O)Nc1ncnc2c1ncn2[C@@H]1O[C@H](COP(=O)(O)O)C2O[C@@H](c3ccccc3)O[C@@H]21 (stereo partly drawn) [Compound 43, 2′3′-(cis)phenyl acetal-6-N-ethylurea AMP] | NR | NR | 11 | NR | NR
O=C(Nc1ncnc2c1ncn2[C@@H]1O[C@H](COP(=O)(O)O)C2OC(Cc3ccccc3)O[C@@H]21)NC1CCCC1 (stereo partly shown) [Compound 25, 2′,3′-phenylacetaldehyde acetal-6-N-cyclopentylurea AMP] | NR | NR | 36 ± 9 | NR | NR
CCNC(=O)Nc1ncnc2c1ncn2[C@@H]1O[C@H](COP(=O)(O)OP(=O)(O)OC[C@H]2O[C@@H](n3cnc4c(NC(=O)NCC)ncnc43)[C@H]3OC(Cc4ccccc4)OC23)C2OC(Cc3ccccc3)OC21 (stereo partly shown) [Compound 46, P^1, P^1-di-(2′,3′-phenylacetaldehydeacetal-6-N-ethylureaadenosine 5′-) diphosphate] | NR | NR | 53 | NR | NR
CCCCCCNC(=O)Nc1ncnc2c1ncn2[C@@H]1O[C@H](COP(=O)(O)O)C2OC(Cc3ccccc3)O[C@@H]21 (stereo partly shown) [Compound 23, 2′,3′-phenylacetaldehyde acetal-6-N-n-hexylurea AMP] | NR | NR | 53 ± 16 | NR | NR
CCCCCCNC(=O)Nc1ncnc2c1ncn2[C@@H]1O[C@H](COP(=O)(O)O)C2OC(C#Cc3ccccc3)O[C@@H]21 (stereo partly shown) [Compound 32, 2′,3′-phenylpropargyl acetal-6-N-n-hexylurea AMP] | NR | NR | 210 | NR | NR
CCCCNC(=O)Nc1ncnc2c1ncn2[C@@H]1O[C@H](COP(=O)(O)O)C2OC(C#Cc3ccccc3)O[C@@H]21 (stereo partly shown) [Compound 33, 2′,3′-phenylpropargyl acetal-6-N-n-butylurea AMP] | NR | NR | 67 | NR | NR
CCNC(=O)Nc1ncnc2c1ncn2[C@@H]1O[C@H](COP(=O)(O)OP(=O)(O)OC[C@H]2O[C@@H](n3cnc4c(NC(=O)NCC)ncnc43)[C@H]3OC(c4ccccc4)OC23)C2OC(c3ccccc3)OC21 (stereo partly shown) [Compound 47, P^1, P^4-Di-(2′,3′-phenylacetal-6-N-ethylureaadenosine 5′-) diphosphate] | NR | NR | 55 | NR | NR
O=C(Nc1ccccc1)Nc1ncnc2c1ncn2[C@@H]1O[C@H](COP(=O)(O)O)C2OC(Cc3ccccc3)O[C@@H]21 (stereo partly shown) [Compound 22, 2′,3′-phenylacetaldehyde acetal-6-N-phenylurea adenosine 5′-monophosphate] | NR | NR | 160 ± 27 | NR | NR
CCCCCCNC(=O)Nc1ncnc2c1ncn2[C@@H]1O[C@H](COP(=O)(O)O)C2OC(/C=C/c3ccccc3)O[C@@H]21 (stereo partly shown) [Compound 26, 2′,3′-cinnamyl acetal-6-N-n-hexylurea AMP] | NR | NR | 36 ± 9 | NR | NR
